Measured values published in patent publication US20090226500A1, “SUTURES AND ANTI-SCARRING AGENTS” (Angiotech Pharmaceuticals, Inc, priority 2006, published 2009).

Key:
human fibroblasts = assay: Cell proliferation of fibroblasts; type: cell-based; settings: Fibroblast, 72 hours, CYQUANT, read-out: IC50 cell proliferation of fibroblasts
In short: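 Human fibroblasts plated at 600 cells/well, attached overnight, then exposed to drug in triplicate for 72 h at 37°C. Cell content read with CYQUANT GR dye in lysis buffer after 3-5 min at room temperature.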

[1] = test system: MCP-1 production by THP-1 cells; assay: MCP-1 production by macrophages; type: cell-based, human; settings: Homo sapiens; THP-1 cells stimulated with opsonized zymosan, 24 hours; read-out: IC50 MCP-1 production
In short: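 THP-1 cells (1×10^6/well, 10% FCS) stimulated with 1 mg/ml serum-opsonized zymosan plus compound added from DMSO stocks at 1/1000, 24 h at 37° C. MCP-1 in supernatants quantified by sandwich ELISA (TMB read-out) against a recombinant human MCP-1 standard curve, triplicates, background-subtracted.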

| Compound | IC50 (human fibroblasts) | IC50 [1] |
| --- | --- | --- |
| CC1=C(O)C(=O)C=C2C1=CC=C1[C@@]2(C)CC[C@@]2(C)[C@@H]3C[C@](C)(C(=O)O)CC[C@]3(C)CC[C@]12C [celastrol] | 100 to 600 nM | 421 nM |
| COc1c(C)c2c(c(O)c1C/C=C(\C)CCC(=O)O)C(=O)OC2 [mycophenolic acid] | 100 to 600 nM | 764 nM |
